# Measurements taken from patent US9095600B2, “Prophylactic and/or therapeutic agent for cardiac infarction” (OSAKA UNIVERSITY, priority 2007, dated 2015).
# Key:
# [1] = Hemodynamic test (blood pressure and heart rate during intravenous injection); format: in vivo, Male SD rats; conditions: rat, i.v.
# Procedure: Male SD rats (nine weeks old, body weight: 270 g to 320 g, supplied by Japan SLC, Inc.) were employed. Each of the rats was anesthetized with pentobarbital sodium (30 mg/kg, intraperitoneal injection) and then fixed in the dorsal position. A tube was orally inserted into the trachea, and artificial ventilation was carried out by means of a ventilator for small animals. A catheter (INTRAMEDIC Polyethylene Tubing PE50, CLAY ADAMS) was inserted into the femoral artery and the femoral vein, and systolic blood pressure, diastolic blood pressure, and mean blood pressure were measured in the femoral artery. Heart rate was measured by means of an electrocardiograph. A drug sample was injected through the catheter indwelled in the femoral vein by means of a syringe pump (Model PHD 4400, HARVARD). Specifically, after stabilization of hemodynamics, empty liposomes (n=8), adenosine only (n=8), and adenosine-retaining liposomes (n=8) were injected transvenously, respectively.
# In an empty liposome group, injection was carried out at 0.05 mL/minute for 10 minutes (one minute, five minutes, and 10 minutes after initiation of injection, blood pressure and heart rate were evaluated), and, for five minutes after completion of injection, blood pressure and heart rate were evaluated. Thereafter, evaluation was carried out in a manner similar to that described above at an injection rate of 0.1 mL/minute, 0.2 mL/minute, or 0.4 mL/minute. In an adenosine-only group or an adenosine-retaining liposome group, injection was initiated at 0.05 mL/minute (225 μg/kg/minute as reduced to adenosine), and cumulative administration was carried out through the same protocol as in the case of the empty liposome group.
# [2] = test system: ischemia-reperfusion model rat; assay: Ischemia-reperfusion test (rat), myocardial infarct size; format: in vivo, Male SD rats; conditions: 900 μg/kg/minute i.v. for 10 minutes, injection before ischemia, 72 hours after reperfusion
# Procedure: Similar to the case of the hemodynamic test, male SD rats were employed. Each of the rats was anesthetized and artificially ventilated, and then thoracotomy was carried out at the thoracic sidewall. The left anterior descending coronary artery (LAD) was ligated by means of a suturing needle with suture for 30 minutes, and then blood flow was restored, to thereby prepare an ischemia-reperfusion model. A drug sample was injected through a catheter (INTRAMEDIC Polyethylene Tubing PE50, CLAY ADAMS) indwelled in the femoral vein.
# In this test, an adenosine-retaining liposome group were divided into two groups: a group received adenosine-retaining liposomes before ischemia (injected for 10-minute before ischemia), and a group received adenosine-retaining liposomes before reperfusion (injected for 10-minute initiated 5 minutes before reperfusion). In the other groups, injection was carried out before ischemia (injected for 10-minute before ischemia). […]
# Each of the rats was anesthetized 72 hours after reperfusion, and then thoracotomy was carried out again. […] After staining, the specimens were photographed, and an ischemic risk area (non-Evans blue-stained area) and an infarct area (non-TTC-stained area) were determined by means of Win ROOF Version 5.5 (product of Mitani Corporation). Infarct size was calculated by dividing the infarct area by the ischemic risk area.
# [3] = cited from earlier work
# [4] = ten minutes after initiation of adenosine injection at 225 μg/kg/minute
# [5] = ten minutes after initiation of adenosine injection at 450 μg/kg/minute
# [6] = ten minutes after initiation of adenosine injection at 900 μg/kg/minute
# [7] = ten minutes after initiation of adenosine injection at 1,800 μg/kg/minute
smiles,measurement,setting,value
"Nc1ncnc2c1ncn2[C@@H]1O[C@H](CO)[C@@H](O)[C@H]1O [adenosine, Adenosine]",heart rate,[1]; [4],357±25 bpm
same,mean blood pressure,[1]; [4],101±12 mmHg
same,heart rate,[1]; [5],324±25 bpm
same,mean blood pressure,[1]; [5],93±14 mmHg
same,heart rate,[1]; [6],296±12 bpm
same,mean blood pressure,[1]; [6],84±11 mmHg
same,heart rate,[1]; [7],236±17 bpm
same,mean blood pressure,[1]; [7],75±11 mmHg
same,myocardial infarct size (infarct area / ischemic risk area),[2],25.2±1.9%
same,half life in blood,[3],< 10 s
